Legend:
[1] = biological target: T1, panel of 442 kinases (Homo sapiens, UniProt Q15759); format: binding; conditions: Compound Concentration 10 µM
T1 construct: purchased KINOMEscan
Description: (§1) We assessed the selectivity of members of this scaffold using the KINOMEscan methodology across a near comprehensive panel of 442 kinases [[18,27]].

[2] = biological target: T2, panel of 442 kinases (Homo sapiens, UniProt Q13237); format: binding; conditions: Compound Concentration 10 µM
T2 construct: purchased KINOMEscan
T2 sequence (Q13237 1-762): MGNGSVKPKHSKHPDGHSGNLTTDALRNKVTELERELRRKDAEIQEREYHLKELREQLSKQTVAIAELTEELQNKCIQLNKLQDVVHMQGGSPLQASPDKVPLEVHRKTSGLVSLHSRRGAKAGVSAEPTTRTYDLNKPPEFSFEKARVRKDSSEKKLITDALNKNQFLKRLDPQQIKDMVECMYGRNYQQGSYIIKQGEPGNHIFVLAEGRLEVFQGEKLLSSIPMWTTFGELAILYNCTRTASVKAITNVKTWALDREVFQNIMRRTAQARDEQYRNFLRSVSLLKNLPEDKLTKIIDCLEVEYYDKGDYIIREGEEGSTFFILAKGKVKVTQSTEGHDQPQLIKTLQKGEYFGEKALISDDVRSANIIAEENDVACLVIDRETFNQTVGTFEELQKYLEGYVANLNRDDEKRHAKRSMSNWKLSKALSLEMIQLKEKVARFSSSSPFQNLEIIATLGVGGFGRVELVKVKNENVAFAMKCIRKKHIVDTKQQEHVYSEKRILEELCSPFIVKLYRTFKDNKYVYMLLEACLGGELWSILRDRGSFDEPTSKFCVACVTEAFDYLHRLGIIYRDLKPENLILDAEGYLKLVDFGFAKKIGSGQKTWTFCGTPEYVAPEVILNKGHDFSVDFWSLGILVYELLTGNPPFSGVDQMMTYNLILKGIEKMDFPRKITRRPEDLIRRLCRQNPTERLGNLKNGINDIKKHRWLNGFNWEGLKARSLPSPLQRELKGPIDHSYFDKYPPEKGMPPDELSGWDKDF
Description: as §1

T1 sequence (Q15759 whole entry): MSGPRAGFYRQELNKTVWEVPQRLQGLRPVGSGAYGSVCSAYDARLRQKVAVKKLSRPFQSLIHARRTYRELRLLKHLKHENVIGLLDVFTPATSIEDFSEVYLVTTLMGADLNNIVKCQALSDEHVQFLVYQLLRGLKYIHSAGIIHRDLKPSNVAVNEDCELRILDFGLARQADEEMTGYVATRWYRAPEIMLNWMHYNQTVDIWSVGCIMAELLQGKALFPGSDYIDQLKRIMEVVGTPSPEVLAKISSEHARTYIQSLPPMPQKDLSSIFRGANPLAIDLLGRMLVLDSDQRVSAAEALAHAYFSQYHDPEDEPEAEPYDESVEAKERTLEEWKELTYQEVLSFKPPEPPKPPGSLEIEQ

## COc1cc(C(=O)N2CCC(N3CCN(C)CC3)CC2)ccc1Nc1ncc2c(n1)N(C)c1ccccc1C(=O)N2C [15 (LRRK2-IN-1)]
[1]
  KINOMEscan: p38-beta: 60
[2]
  KINOMEscan: PRKG2: 74

## COc1cc(C(=O)N2CCC(N3CCN(C)CC3)CC2)ccc1Nc1ncc2c(n1)N1CCc3cccc(c31)C(=O)N2C [Compound 24]
[1]
  KINOMEscan: p38-beta: 56
[2]
  KINOMEscan: PRKG2: 98

## COc1cc(C(=O)N2CCC(N3CCN(C)CC3)CC2)ccc1Nc1ncc2c(n1)N(C1CCCC1)c1ccccc1C(=O)N2C [Compound 25, 11-cyclopentyl-2-((2-methoxy-4-(4-(4-methylpiperazin-1-yl)piperidine-1-carbonyl)phenyl)amino)-5-methyl-5H-benzo[e]pyrimido[5,4-b][1,4]diazepin-6(11H)-one]
[1]
  KINOMEscan: p38-beta: 56
[2]
  KINOMEscan: PRKG2: 98

## CCOc1cc(C(=O)N2CCC(N3CCN(C)CC3)CC2)ccc1Nc1ncc2c(n1)N(C1CCCC1)c1ccccc1C(=O)N2C [Compound 26]
[1]
  KINOMEscan: p38-beta: 81
[2]
  KINOMEscan: PRKG2: 100
